“Also recorded” adds a separate entry of the source.
Legend:
PDE 5 [1] = biological target: T1, PDE 5 (Homo sapiens, UniProt O76074); test: PDE 5 inhibitory activity; type: biochemical; conditions: target not stated at the place; PDE 5 from context
[2] = Incubation of Compound A with pooled human liver microsomes and NADPH-generating system; type: in vitro ADME
Experimental: (§1) Compound C was prepared via a biotransformation from Compound A. In vitro incubations of Compound A (1, 5 and 50 μM) were performed with pooled human liver microsomes and CYP3A4 SUPERSOMES®. This radiolabel allowed tracking of all the metabolites of Compound A. For this procedure, Compound A was synthesized by inserting a ^14C in the 4 position as indicated in the ring member numbering scheme below.
(§2) Incubation mixtures contained cytochrome P450 (1 nmol/mL for human liver microsomes or 0.2 nmol/mL for CYP3A4), β-NADP^+ (1 mM), glucose-6-phosphate (5 mM), glucose-6-phosphate dehydrogenase (1.5 units/mL) and 3 mM magnesium chloride in 0.5 mL of 50 mM potassium phosphate buffer (pH 7.4). Prior to the addition of drug, incubation mixtures were pre-incubated for 3 min at about 37° C. […] Boiled human liver microsomes and incubations without NADPH served as negative control. […]
(§3) Radiometric profiles of metabolites following 120 min incubation of Compound A (50 μM) with CYP3A4, Human Liver Microsomes, and Insect Microsomes, all with a NADPH-generating system, are shown in FIGS. 1, 2, and 3, respectively. In these figures, the y-axis reflects radioactivity of the eluted species and has units of counts per minute, while the x-axis reflects time of elution and has units of minutes. […] Mass-to-charge ratios are measured by mass spectrometry.

CYP3A4 = biological target: T2, CYP3A4 (Homo sapiens, UniProt P08684); test: Incubation of Compound A with CYP3A4 SUPERSOMES and NADPH-generating system; type: in vitro ADME
T2 construct: purchased; host or cells: An insect cell host is inferred from the 'Insect Microsomes' control
Experimental: as §1, §2, §3

[3] = Circulating metabolites after single oral administration of Compound A to humans; type: in vivo; conditions: single administration of Compound A 100 mg PO
PDE 5 [4] = biological target: T1, PDE 5; conditions: disclosed in U.S. Ser. No. 09/940,760; cited from earlier work
[5] = Incubation of Compound A with Control Insect Microsomes and NADPH-generating system; type: in vitro ADME; conditions: Compound A 50 μM, 120 min, Control Insect Microsomes, FIG. 3
Experimental: Incubation mixtures contained cytochrome P450 (1 nmol/mL for human liver microsomes or 0.2 nmol/mL for CYP3A4), β-NADP^+ (1 mM), glucose-6-phosphate (5 mM), glucose-6-phosphate dehydrogenase (1.5 units/mL) and 3 mM magnesium chloride in 0.5 mL of 50 mM potassium phosphate buffer (pH 7.4). Prior to the addition of drug, incubation mixtures were pre-incubated for 3 min at about 37° C. […] Boiled human liver microsomes and incubations without NADPH served as negative control. A discussion of HPLC is provided in “HPLC in Pharmaceutical Analysis,” vol. I, G. Szepesi (1990). A discussion of mass spectrometry is provided in “Remington: The Science and Practice of Pharmacy,” 20th Ed., D. Limmer, ed., pp. 636-639 (2000).
Radiometric profiles of metabolites following 120 min incubation of Compound A (50 μM) with CYP3A4, Human Liver Microsomes, and Insect Microsomes, all with a NADPH-generating system, are shown in FIGS. 1, 2, and 3, respectively. In these figures, the y-axis reflects radioactivity of the eluted species and has units of counts per minute, while the x-axis reflects time of elution and has units of minutes. Each peak represents one or more compounds, and each of the more significant peaks is labeled with the mass-to-charge ratio value (m/z) of that compound. Mass-to-charge ratios are measured by mass spectrometry.

T2 sequence (P08684 whole entry): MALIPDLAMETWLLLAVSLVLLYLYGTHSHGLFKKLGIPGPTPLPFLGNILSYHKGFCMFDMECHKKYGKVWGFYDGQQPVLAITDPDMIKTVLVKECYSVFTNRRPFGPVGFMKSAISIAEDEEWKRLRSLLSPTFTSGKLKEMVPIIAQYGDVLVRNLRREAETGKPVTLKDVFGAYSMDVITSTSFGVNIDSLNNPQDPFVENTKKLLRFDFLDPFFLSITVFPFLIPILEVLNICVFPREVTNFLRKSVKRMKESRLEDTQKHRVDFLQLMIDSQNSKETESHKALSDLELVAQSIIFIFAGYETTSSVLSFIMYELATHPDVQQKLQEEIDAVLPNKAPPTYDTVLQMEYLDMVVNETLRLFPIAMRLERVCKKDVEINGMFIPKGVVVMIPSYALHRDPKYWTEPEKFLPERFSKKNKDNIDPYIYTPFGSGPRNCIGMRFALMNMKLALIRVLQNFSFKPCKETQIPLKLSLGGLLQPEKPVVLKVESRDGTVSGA

IC50 (PDE 5 [1])	metabolite formed from Compound A (radiometric profile) ([2]; Compound A 50 μM, 120 min, Human Liver Microsomes, FIG. 2)	metabolite formed from Compound A (radiometric profile) (CYP3A4; Compound A 50 μM, 120 min, CYP3A4, FIG. 1)	Compound	circulating metabolite in human [3]	extent of metabolism ([2]; 1, 5 and 50 μM, human liver microsomes 1 nmol/mL, NADPH-generating system)	PDE 5 inhibitory activity (PDE 5 [4])	activity with respect to the formation of Compound C (CYP3A4; 50 μM Compound A, cDNA-expressed CYP3A4)	metabolite formation [5]
71 nM	significant metabolite	significant metabolite	CCn1c(=O)c2c(nc(N)n2Cc2ccc(OC)c(Br)c2)n(CCO)c1=O [Compound C, 8-Amino-7-[(3-Bromo-4-Methoxyphenyl)Methyl]-1-Ethyl-3,7-Dihydro-3-(2-Hydroxyethyl)-1H-Purine-2,6-Dione]	one of the major circulating metabolites; also recorded: prominent circulating metabolite	–	–	–	–
–	–	–	CCn1c(=O)c2c(nc(N[C@@H]3CCC[C@H]3O)n2Cc2ccc(OC)c(Br)c2)n(CCO)c1=O [Compound A]	–	metabolized extensively	having PDE 5 inhibitory activity	exhibited the greatest activity	no major metabolite formation was observed
